pIC50: −log10 of the molar value.
target: T1, Full length (FL) 3-Phosphoglycerate Dehydrogenase (PHGDH) (Homo sapiens, UniProt O43175); assay: Full length (FL) PHGDH Diaphorase coupled assay (500 uM NAD); type: biochemical; conditions: full-length PHGDH 5 nM, 30° C. 60 minutes, resorufin fluorescence
T1 construct: Full length (FL) 3-Phosphoglycerate Dehydrogenase (PHGDH) Diaphorase coupled assay (500 uM NAD)
T1 sequence (O43175 1-533): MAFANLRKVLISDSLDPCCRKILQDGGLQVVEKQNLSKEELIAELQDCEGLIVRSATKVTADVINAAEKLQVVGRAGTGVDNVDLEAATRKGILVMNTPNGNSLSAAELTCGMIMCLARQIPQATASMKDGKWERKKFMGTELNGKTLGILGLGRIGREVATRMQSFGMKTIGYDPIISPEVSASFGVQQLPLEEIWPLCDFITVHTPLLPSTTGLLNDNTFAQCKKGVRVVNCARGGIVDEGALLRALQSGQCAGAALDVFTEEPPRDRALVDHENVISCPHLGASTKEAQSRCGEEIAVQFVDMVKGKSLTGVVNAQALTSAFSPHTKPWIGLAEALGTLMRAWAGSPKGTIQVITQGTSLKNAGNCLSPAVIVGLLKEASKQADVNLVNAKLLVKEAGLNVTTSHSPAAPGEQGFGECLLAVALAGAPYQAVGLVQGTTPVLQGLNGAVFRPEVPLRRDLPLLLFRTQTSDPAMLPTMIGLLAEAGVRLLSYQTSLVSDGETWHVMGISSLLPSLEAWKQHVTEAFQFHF
Method: Full length (FL) 3-Phosphoglycerate Dehydrogenase (PHGDH) Diaphorase coupled assay (500 uM NAD)
PHGDH activity was determined by detecting the NADH produced during the reaction. Diaphorase was used to catalyze the oxidation of NADH with the concomitant reduction of resazurin to the fluorescent product resorufin. Resorufin fluorescence quantitatively reflected the production of NADH by the PHGDH reaction. To drive the forward reaction, two enzymes in the serine synthesis pathway subsequent to PHGDH, Phosphoserine aminotransferase (PSAT1) and phosphoserine phosphatase (PSPH) were also added to the reaction.
Briefly, serial dilution of compounds were incubated in a volume of 20 μL in 384 well plates with the assay mixture containing 5 nM PHGDH, 500 nM PSAT1, 500 nM PSPH, 500 μM NAD^+, 80 uM 3-phosphoglycerate, 1 mM glutamate, 57 uM Resazurin and 0.2 mg/ml Diaphorase in assay buffer containing 50 mM Trisethanoloamine (TEA) pH8.0, 10 mM MgCl2, 0.01% Tween-20 and 0.05% Bovine Serum Albumin (BSA). The plate was then incubated at 30° C. for 60 minutes and resorufin fluorescence was measured at emission wavelength 598 nm following excitation at 525 nm. The positive control consisted of the complete reaction mixture with 4% DMSO and was set to 0% inhibition.

pIC50, 6.00 to 9.00:
Cn1c(C(=O)NC2(c3ccc(C4(C(=O)O)CCOC4)cc3)COC2)cc2c(Cl)c(Cl)ccc21 (racemic) [I-2 e125]
Cn1c(C(=O)NC2(c3ccc(C(CC4CC4)C(=O)O)cc3)COC2)cc2c(Cl)c(Cl)ccc21 (racemic) [I-3 e124]
COc1cc2c(cc(C(=O)NC3(c4ccc(C(CC5CC5)C(=O)O)cc4)COC3)n2C)c(Cl)c1Cl (racemic) [I-4 e123]
COc1cc2c(cc(C(=O)NC3(c4ccc(C(C(=O)O)C5CCC5)cc4)COC3)n2C)c(Cl)c1Cl (racemic) [I-7 e117]
Cn1c(C(=O)NC2(c3ccc(C(C(=O)O)C4CCC4)cc3)COC2)cc2c(Cl)c(Cl)ccc21 (racemic) [I-8 e116]
CC(C)CC(C(=O)O)c1ccc(C2(NC(=O)c3cc4c(Cl)c(Cl)ccc4n3C)COC2)cc1 (racemic) [I-9 e137, (±)-2-(4-(3-(4,5-Dichloro-1-methyl-1H-indole-2-carboxamido)oxetan-3-yl)phenyl)-4-methylpentanoic acid]
Cn1c(C(=O)NC2(c3ccc(C(C(=O)O)C4CCC4)cc3)CCOC2)cc2c(Cl)c(Cl)ccc21 (racemic) [I-12 e86]
COc1ccc2c(cc(C(=O)NC3(c4ccc(C(C(=O)O)C5CCC5)cc4)COC3)n2C)c1Cl (racemic) [I-13 e111]
CCC(C(=O)O)c1ccc(C2(NC(=O)c3cc4c(Cl)c(Cl)c(OC)cc4n3C)COC2)cc1 (racemic) [I-14 e113]
Cn1c(C(=O)NC2(c3ccc(C(C(=O)O)C4CC4)cc3)CCOC2)cc2c(Cl)c(Cl)ccc21 (racemic) [I-15 e162, (±)-2-Cyclopropyl-2-(4-(3-(4,5-dichloro-1-methyl-1H-indole-2-carboxamido)tetrahydrofuran-3-yl)phenyl)acetic acid]
Cn1c(C(=O)NC2(c3ccc(C(C(=O)O)C4CCCC4)cc3)CCOC2)cc2c(Cl)c(Cl)ccc21 (racemic) [I-16 e87]
CCCC(C(=O)O)c1ccc(C2(NC(=O)c3cc4c(Cl)c(Cl)c(OC)cc4n3C)CCOC2)cc1 (racemic) [I-17 e85]
CCCC(C(=O)O)c1ccc(C2(NC(=O)c3cc4c(Cl)c(Cl)ccc4n3C)CCOC2)cc1 (racemic) [I-18 e84]
CC(C)C(C(=O)O)c1ccc(C2(NC(=O)c3cc4c(Cl)c(Cl)ccc4n3C)CCOC2)cc1 (racemic) [I-19 e94]
COc1cc2c(cc(C(=O)NC3(c4ccc(C(C(=O)O)C(C)C)cc4)CCOC3)n2C)c(Cl)c1Cl (racemic) [I-20 e83]
COc1ccc2c(cc(C(=O)NC3(c4ccc(C(C(=O)O)C(C)C)cc4)COC3)n2C)c1Cl (racemic) [I-21 e127]
COc1cc2c(cc(C(=O)NC3(c4ccc(C(C(=O)O)C5CCCC5)cc4)COC3)n2C)c(Cl)c1Cl (racemic) [I-22 e118]
CCC(C(=O)O)c1ccc(C2(NC(=O)c3cc4c(Cl)c(Cl)c(OC)cc4n3C)CCOC2)cc1 (racemic) [I-23 e82]
CCCC(C(=O)O)c1ccc(C2(NC(=O)c3cc4c(Cl)c(Cl)ccc4n3C)COC2)cc1 (racemic) [I-24 e114]
Cn1c(C(=O)NC2(c3ccc(C(C(=O)O)C4CCCC4)cc3)COC2)cc2c(Cl)c(Cl)ccc21 (racemic) [I-25 e136, (±)-2-Cyclopentyl-2-[4-[3-[(4,5-dichloro-1-methyl-indole-2-carbonyl)amino]oxetan-3-yl]phenyl]acetic acid]
COc1ccc2c(cc(C(=O)NC3(c4ccc(C(C(=O)O)C5CCCC5)cc4)COC3)n2C)c1Cl (racemic) [I-26 e130]
COc1cc2c(cc(C(=O)NC3(c4ccc(C(C(=O)O)C(C)C)cc4)COC3)n2C)c(Cl)c1Cl (racemic) [I-29 e135, (±)-2-[4-[3-[(4,5-Dichloro-6-methoxy-1-methyl-indole-2-carbonyl)amino]oxetan-3-yl]phenyl]-3-methyl-butanoic acid]
CC(C)C(C(=O)O)c1ccc(C2(NC(=O)c3cc4c(Cl)c(Cl)ccc4n3C)COC2)cc1 (racemic) [I-30 e134]
CCCC(C(=O)O)c1ccc(C2(NC(=O)c3cc4c(Cl)c(OC)ccc4n3C)COC2)cc1 (racemic) [I-31 e112]
CCCC(C(=O)O)c1ccc(C2(NC(=O)c3cc4c(Cl)c(Cl)c(OC)cc4n3C)COC2)cc1 (racemic) [I-38 e115]
COc1ccc2c(cc(C(=O)NC3(c4ccc(C(C)(C)C(=O)O)cc4F)CCOC3)n2C)c1Cl (racemic) [I-39 e81]
COc1ccc2c(cc(C(=O)NC3(c4ccc(C(C)C(=O)O)cc4F)CCOC3)n2C)c1Cl (racemic) [I-40 e55]
CCC(C(=O)O)c1ccc(C2(NC(=O)c3cc4c(Cl)c(Cl)ccc4n3C)COC2)cc1 (racemic) [I-42 e133]
CCC(C(=O)O)c1ccc(C2(NC(=O)c3cc4c(Cl)c(OC)ccc4n3C)COC2)cc1 (racemic) [I-43 e126]
COc1ccc2c(cc(C(=O)NC3(c4ccc(C(C)C(=O)O)cc4F)COC3)n2C)c1Cl (racemic) [I-49 e60]
CC(c1ccc(C2(NC(=O)c3cc4c(Cl)c(Cl)ccc4n3C)CCOC2)cc1)c1nnn[nH]1 (racemic) [I-52 e91]
COc1cc2c(cc(C(=O)NC3(c4ccc(C(C)(C)C(=O)O)cc4F)CCOC3)n2C)c(Cl)c1Cl (racemic) [I-53 e80]
Cn1c(C(=O)NC2(c3ccc(C(C)(C)C(=O)O)cc3F)CCOC2)cc2c(Cl)c(Cl)ccc21 (racemic) [I-54 e79]
COc1cc2c(cc(C(=O)NC3(c4ccc(C(C)C(=O)O)cc4F)CCOC3)n2C)c(Cl)c1Cl (racemic) [I-55 e54]
CC(C(=O)O)c1ccc(C2(NC(=O)c3cc4c(Cl)c(Cl)ccc4n3C)CCOC2)c(F)c1 (racemic) [I-57 e53]
COc1ccc2c(cc(C(=O)NC3(c4ccc(C5(C(=O)O)CC5)cc4)CCOC3)n2C)c1Cl (racemic) [I-58 e70]
Cn1c(C(=O)NC2(c3ccc(C4(C(=O)O)CC4)cc3)CCOC2)cc2c(Cl)c(Cl)ccc21 (racemic) [I-59 e38]
COc1ccc2c(cc(C(=O)NC3(c4ccc(C(C)C(=O)O)cc4)CCOC3)n2C)c1Cl (racemic) [I-64 e57]
COc1ccc2c(cc(C(=O)NC3(c4ccc(C(C)C(=O)O)cc4)COC3)n2C)c1Cl (racemic) [I-67 e59]
CC(C(=O)O)c1ccc(C2(NC(=O)c3cc4c(Cl)c(Cl)ccc4n3C)COC2)cc1 (racemic) [I-68 e58]

From patent US11634412B2, “3-phosphoglycerate dehydrogenase inhibitors and uses thereof” (Raze Therapeutics, Inc., priority 2016, dated 2023)
